This is an account of results in US20220144853A1, “IMIDAZOLINE DERIVATIVES AS CXCR4 MODULATORS” (Université de Paris, priority 2019, published 2022).

Molecules are shown by their SMILES. Where a name gives a salt, the structure may show the parent alone.

Assay [1] relates to IFN production by activated immune cells (PBMC) from lupus patients. The assay can be described thus: IFN production by R848-activated PBMC from lupus patients, STING-37 reporter cell line. In kind it is cell-based, human. As to conditions: 10 μM, PBMC from three SLE patients, FIG. 2. The procedure:
Material from Juvenile Dermatomyositis and Lupus patients were obtained from Necker Hospital, Paris, France or from Imagine Institute, Paris, France. The study was approved by the Conité des Protection des Personnes (ID-RCB/EUDRACT: 2014-A01017-40 and 2018-A01358-47) in France.
In vitro experiments were performed using human peripheral blood mononuclear cells (PBMCs) isolated by density centrifugation from peripheral blood leukocyte separation medium (Cambrex, Gaithersburg, Md.).
PBMCs were cultured in RPMI 1640 (Invitrogen, Gaithersburg, Md.) (R10) containing 10% heat-inactivated fetal bovine serum, 100 U/mL Penicilium and 100 μg/mL Streptomycin (1% Pen-Strep) and 1 mM glutamine (Hyclone, Logan, Utah).
1) The PBMCs used herein were prepared as described in part A “immune cells preparation”, section 1) above. PBMCs were seeded at 2.10^6/mL. […] Cells were then stimulated with the TLR7/8 agonist resiquimod—R848 (Invivogen) at 5 μg/mL. […]
1) To quantify the secretion of functional IFN, a biological assay based on a stable cell line where luciferase reporter gene is controlled by five Interferon-Stimulated Response Elements (STING37 cell line) was used. […] After 24 h of culture, luciferase activity was determined by adding 50 μL of Bright-Glo reagents (Promega) to culture wells and measuring bioluminescence with a luminometer.

Assay [2] addresses T1, human CXCR4 (hCXCR4) receptor (Homo sapiens, UniProt P61073).
T1 construct: expressed in transfected cells; host or cells: HEK-293 T cells, transient co-transfection with polyethylenimine
As to the kind of experiment: BRET assay of antagonist activity on the CXCR4-CXCL12 signaling pathway in transfected HEK-293 T cells. In kind it is cell-based. As to conditions: Gαi1, Gαi2, Gαi3, GαoB or Gαz, EC80 CXCL12, FIG. 6. The method, then:
Examples of the present invention were tested for their antagonist activity on human CXCR4 (hCXCR4) receptor transiently over-expressed in HEK-293 T cells. Compounds exert antagonist activity if they decrease the action of CXCL12 on the receptor.
HEK-293 T cells are maintained in Dulbecco's Modified Eagle's Medium supplemented with 10% Foetal Calf Serum, 1% Penicillin/Streptomycin at 37° C./5% CO2. […] After transfection, cells are cultured for 48 h at 37° C./5% CO2.
On the day of the assay, cells are detached using trypsin 0.05%, resuspended in assay buffer (1.8 mM CaCl2, 1 mM MgCl2, 2.7 mM KCl, 137 mM NaCl, 0.4 mM NaH2PO4, 5.5 mM D-Glucose, 11.9 mM NaHCO3, 25 mM Hepes) and seeded in 384 well plate at a density of 20,000 cells per well.
Cells are first incubated for 10 minutes with the compound alone. Then, cells are stimulated by an EC80 CXCL12 concentration for additional 10 minutes and luminescence is recorded. […] Antagonist activity is evaluated in comparison to basal signals evoked by EC80 CXCL12 alone.
For IC50 determination, a dose-response test is performed using 20 concentrations (ranging over 6 logs) of each compound. Dose-response curves are fitted using the sigmoidal dose-response (variable slope) analysis in GraphPad Prism software (GraphPad Software) and IC50 of antagonist activity is calculated. […]
Background: Bioluminescence resonance energy transfer reports proximity on the nanometre scale.

The subject of assay [3] is IFN production by activated PBMCs. As to the kind of experiment: IFN production by R848-activated PBMCs from healthy donors, twINNE reporter cell line. It counts as cell-based, human. As to conditions: Homo sapiens, PBMC, means of two results over 2 healthy donors, R848 5 μg/mL, IT1t: mean over all experiments, read-out: IC50 of anti-inflammatory activity (IFN production). Put shortly:
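Human PBMCs (4.10^6/mL, RPMI/10% FBS, 37° C) stimulated with R848 at 5 μg/mL; supernatants collected after 24 h. Functional IFN measured on twINNE cells (ISRE-driven luciferase reporter) after 24 h culture by bioluminescence; IC50 from variable-slope dose-response fits.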

The subject of another assay is IL-12p70. As to the kind of experiment: Cytokine production by R848-activated PBMCs, LEGENDplex Human Inflammation panel 1: IL-12p70. In kind it is cell-based. As to conditions: Homo sapiens, PBMC, PBMCs from 2 healthy donors, R848 overnight. The procedure:
(§1) 2) The PBMCs used herein were prepared as described in part A “immune cells preparation”, section 2) above. PBMCs were seeded at 4.10^6/mL. […] Cells were then stimulated with the TLR7/8 agonist resiquimod—R848 (Sigma-Aldrich, MO, USA) at 5 μg/mL.
(§2) Cytokine expression levels were assessed using LEGENDplex Human inflammation panel 1 Kit (BioLegend, California, USA), which is a bead-based multiplex assay, using fluorescence-encoded beads. […] First, supernatants of R848-stimulated PBMCs were harvested after 24 h of stimulation and frozen at −20° C. for storage. Supernatants were dispensed into a 96-well V-bottom plate. Protocol pursued as per manufacturer recommendations (Manual for BioLegend LEGENDplex, Multi-Analyte Flow Assay Kit, Human Inflammation Panel 1, version 750000393_R01).

Another assay concerns IL-18. As to the kind of experiment: Cytokine production by R848-activated PBMCs, LEGENDplex Human Inflammation panel 1: IL-18. In kind it is cell-based. As to conditions: Homo sapiens, PBMC, PBMCs from 2 healthy donors, R848 overnight. The method, then:
as §1, §2

T1 sequence (P61073 whole entry): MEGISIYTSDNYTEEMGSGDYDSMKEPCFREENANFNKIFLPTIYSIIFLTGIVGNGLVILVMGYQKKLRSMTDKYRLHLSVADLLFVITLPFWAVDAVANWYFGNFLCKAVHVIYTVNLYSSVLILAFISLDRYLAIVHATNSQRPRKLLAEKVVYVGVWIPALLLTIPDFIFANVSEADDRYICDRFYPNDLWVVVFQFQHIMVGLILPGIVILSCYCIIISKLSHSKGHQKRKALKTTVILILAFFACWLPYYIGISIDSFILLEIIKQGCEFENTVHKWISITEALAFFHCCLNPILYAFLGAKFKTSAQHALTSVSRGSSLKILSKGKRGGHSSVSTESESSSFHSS

On to `CC1(C)CN2C(CSC3=NCC(C)(C)N3)=CSC2=N1` [Example 2, 3-(((5,5-dimethyl-4,5-dihydro-1H-imidazol-2-yl)thio)methyl)-6,6-dimethyl-5,6-dihydroimidazo[2,1-b]thiazole dihydrochloride], for which the “IFN production by activated PBMCs” value in assay [1] is reported as “level similar to the one of unstimulated negative controls”. The “antagonist activity: recruitment of G proteins induced by the hCXCR4-CXCL12 interaction” value in assay [2] is listed as “significantly lower than IT1t”. Also, the figures for the IC50 (in assay [3]; with IL-12p70; in the assay with IL-18) were 10 to 31 µM, 14 µM and 13 µM, respectively.
